Measured values as given in PMC7278776, “Multidrug Resistance Modulation Activity of Silybin Derivatives and Their Anti-Inflammatory Potential” (Antioxidants, 2020).

Test system: not listed separately
Assay: ORAC (oxygen radical absorption capacity) assay
Conditions: fluorescein/AAPH; read-out: ORAC, concentration necessary to halve the fluorescence response (IC50)
Experimental: Antioxidant capacity of samples was determined by ORAC (oxygen radical absorption capacity) and CAA (cellular antioxidant activity) assays. ORAC assay was realized by the previously described protocol. Briefly, 50 µL of the fluorescein solution (1.6 µg/mL in phosphate-buffered saline (PBS), pH 7.4) was added by a dispenser (MultiFlo Microplate Dispenser, BioTek Instrument, Winooski, VT, USA) into each well of a 96-well plate. Subsequently, 2 µL of tested compound in the concentration range 1.25–20 µM and 23 µL of PBS were added to the wells. The plate was incubated for 15 min at 37 °C and then 25 µL of AAPH (60 mg/mL) was added to each well. AAPH was replaced with PBS for the negative control. Immediately, the fluorescence was recorded by the microplate reader (SpectraMax i3 Multi-Mode Detection Platform, Molecular Devices, San Jose, CA, USA) for 2 h in 5 min steps (excitation/emission 485/535 nm).

Row | Structure (SMILES) | IC50 [µM]
1 | COc1cc(C2Oc3cc(-c4oc5cc(O)cc(O)c5c(=O)c4O)ccc3OC2CO)ccc1O (stereo not shown) [Dehydrosilybin AB, 2,3-dehydrosilybin] | 10.1
2 | COc1cc([C@@H]2Oc3cc(-c4oc5cc(O)cc(O)c5c(=O)c4O)ccc3O[C@H]2CO)ccc1O [Dehydrosilybin B, 2,3-dehydrosilybin B] | 11.8 ± 0.6

Test system: nitric oxide (NO) production by LPS-stimulated macrophages (RAW 264.7)
Assay: NO production by LPS-stimulated macrophages (Griess)
Type: cell-based, mouse
Conditions: Mus musculus, RAW264.7, 24 h, read-out: NO Production, concentration necessary to halve NO production (IC50)
Experimental: Immunomodulatory effect of tested compounds was determined as their ability to decrease nitric oxide (NO) production by LPS-stimulated macrophages (RAW 264.7, Sigma-Aldrich). Briefly, the cells were seeded into the 96-well plate at a density of 1 × 10^6 cells/mL in DMEM medium (supplemented with 2 mM L-glutamine and 1 × antibiotic antimycotic solution). After 48 h, the cells were washed with PBS. The MEM medium enriched with LPS (1 µg/mL) was added to the wells, together with the samples in the concentration range of 6.25–100 µM at a final volume of 100 µL. Indomethacin, a non-steroidal anti-inflammatory drug, was tested as a positive control in the concentration range 6.25–100 µM. After 24 h, the medium was used for the quantification of NO and inflammatory cytokines.
After 15 min, absorbance was recorded at 540 nm.

Row | Structure (SMILES) | IC50 [µM]
3 | COc1cc(C2Oc3cc(-c4oc5cc(O)cc(O)c5c(=O)c4O)ccc3OC2CO)ccc1O (stereo not shown) [Dehydrosilybin AB, 2,3-dehydrosilybin] | 19.1 ± 0.2
4 | COc1cc([C@@H]2Oc3cc(-c4oc5cc(O)cc(O)c5c(=O)c4O)ccc3O[C@H]2CO)ccc1O [Dehydrosilybin B, 2,3-dehydrosilybin B] | 31.3 ± 2.4

Same assay, conditions: NO production; vs dehydrosilybin AB

Row | Structure (SMILES) | immunomodulation effect lower compared to its diastereomeric mixture
5 | COc1cc([C@@H]2Oc3cc(-c4oc5cc(O)cc(O)c5c(=O)c4O)ccc3O[C@H]2CO)ccc1O [Dehydrosilybin B, 2,3-dehydrosilybin B] | approximately 40%

Target: acetylcholinesterase (Homo sapiens, UniProt P22303)
Assay: Acetylcholinesterase activity, Ellman colorimetric method
Type: biochemical
Conditions: not given
Experimental: The activity of acetylcholinesterase was measured by the Ellman colorimetric method. A stock solution of acetylcholinesterase was prepared in PBS (0.057 U/mL), 100× diluted and stored in a freezer (−20 °C). Further, the solution of DTNB (5,5′-dithio-bis-2-nitrobenzoic acid, 50 µM) and ATC ([…], 50 µM) was prepared. […] Afterwards, 10 µL of DNTB and ATC solution was added, and the reaction was launched. After the addition of reagents, the absorbance at 412 nm was recorded for 10 min every minute.

acetylcholinesterase, sequence (P22303 32-614, species assumed): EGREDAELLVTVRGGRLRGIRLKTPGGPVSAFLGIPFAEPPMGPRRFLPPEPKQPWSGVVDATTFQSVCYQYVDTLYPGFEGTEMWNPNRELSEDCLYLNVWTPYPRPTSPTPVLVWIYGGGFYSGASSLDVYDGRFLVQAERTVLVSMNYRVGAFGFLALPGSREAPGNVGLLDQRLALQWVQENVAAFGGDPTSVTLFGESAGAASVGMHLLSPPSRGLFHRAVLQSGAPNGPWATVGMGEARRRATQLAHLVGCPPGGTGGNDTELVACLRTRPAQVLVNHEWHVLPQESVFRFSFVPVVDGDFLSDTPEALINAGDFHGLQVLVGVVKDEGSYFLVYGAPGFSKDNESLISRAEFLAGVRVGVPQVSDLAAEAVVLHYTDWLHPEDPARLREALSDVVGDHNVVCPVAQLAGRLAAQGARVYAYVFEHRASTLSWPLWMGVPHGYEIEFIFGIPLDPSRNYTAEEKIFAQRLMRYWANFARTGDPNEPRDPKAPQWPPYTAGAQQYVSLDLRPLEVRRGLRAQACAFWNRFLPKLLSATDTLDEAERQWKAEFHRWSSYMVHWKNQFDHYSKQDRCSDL

Row | Structure (SMILES) | IC50 [µM] | inhibition of acetylcholinesterase activity relative to single isomers [×]
6 | COc1cc(C2Oc3cc(-c4oc5cc(O)cc(O)c5c(=O)c4O)ccc3OC2CO)ccc1O (stereo not shown) [Dehydrosilybin AB, 2,3-dehydrosilybin] | 2.7 ± 0.3 | 2.5
7 | COc1cc([C@@H]2Oc3cc(-c4oc5cc(O)cc(O)c5c(=O)c4O)ccc3O[C@H]2CO)ccc1O [Dehydrosilybin B, 2,3-dehydrosilybin B] | 6.8 ± 0.8 | 

Test system: ABCA1
Assay: ABCA1 mRNA expression (real-time PCR)
Type: cell-based, human
Conditions: A2780/DOX, 10 µM combined with doxorubicin at IC25, 48 h
Experimental: (§1) The A2780/DOX cell line was seeded into 5 cm Petri dishes with DMEM medium at 1 × 10^5 cell/mL. After 24 h, the dishes were washed with PBS and new DMEM medium supplemented with doxorubicin (at concentration equal to IC25) and samples (10 µM) were added. After 48 h of treatment, the cells were washed with PBS and harvested using the standard trypsin-EDTA procedure. The harvested cells were centrifuged (3200× g; 10 min, 4 °C). The supernatant was discarded, and the pellets were washed with 1.5 mL of cooled PBS (5400× g; 10 min, 4 °C). The washing step was repeated with 1 mL of PBS and the cells were centrifuged again (10,000× g; 3 min, 4 °C). Afterwards, the pellets were resuspended in 1 mL of Trizol (Invitrogen, Carlsbad, CA, USA) and transferred into pre-cooled RNase-free microfuge tubes. The samples were stored at −80 °C.
(§2) A Quant-iT RiboGreen RNA Assay Kit (Invitrogen) was used to determine the RNA concentration using the Infinite M200 plate reader (Tecan, Männedor, Switzerland). The cDNA was prepared from 0.5 µg of total RNA using a RevertAid First Strand Synthesis cDNA Kit (MBI Fermentas, Vilnius, Lithuania). The amplification of the ubiquitin C gene fragment was used to determine the quality of cDNA.
(§3) The experiment was performed using the ViiA7 Real-Time polymerase chain reaction (PCR) System (Life Technologies, Camarillo, CA, USA) with a 384-well block. Before quantitative real-time PCR, the master mix was prepared by mixing 2 µL of 8 × diluted cDNA, 1.75 µL of RNase free water, 1 µL of 5 × HotFIREPol Probe quantitative PCR Mix Plus (Solis Biodyne, Tartu, Estonia) and 0.25 µL of specific 20 × TaqMan Gene Expression Assay (Life Technologies), giving 5 µL of final reaction volume. Cycling parameters were: initial hold at 50 °C for 2 min and denaturation at 95 °C for 10 min, followed by 45 cycles consisting of denaturation at 95 °C for 15 s and annealing/extension at 60 °C for 1 min. After each extension phase, the fluorescence values were acquired. Duplicate samples were used for measurement and samples with a standard deviation of duplicates > 1.0 cycle threshold (Ct) were re-analyzed. The real time PCR procedure was maintained according to MIQE (Minimum information for publication of quantitative real-time PCR experiments) guidelines. The software REST 2009 (Qiagen, Hilden, Germany) served to compare relative transcript levels of genes in the cell line.

Row | Structure (SMILES) | ABCA1 Expression Difference
8 | COc1cc(C2Oc3cc(-c4oc5cc(O)cc(O)c5c(=O)c4O)ccc3OC2CO)ccc1O (stereo not shown) [Dehydrosilybin AB, 2,3-dehydrosilybin] | 3.122
9 | COc1cc([C@@H]2Oc3cc(-c4oc5cc(O)cc(O)c5c(=O)c4O)ccc3O[C@H]2CO)ccc1O [Dehydrosilybin B, 2,3-dehydrosilybin B] | 4.412

Same assay, conditions: A2780/DOX, 10 µM, 48 h, without doxorubicin

Row | Structure (SMILES) | ABCA1 Expression Difference
10 | COc1cc(C2Oc3cc(-c4oc5cc(O)cc(O)c5c(=O)c4O)ccc3OC2CO)ccc1O (stereo not shown) [Dehydrosilybin AB, 2,3-dehydrosilybin] | 1.803

Test system: ABCB2
Assay: ABCB2 mRNA expression (real-time PCR)
Type: cell-based, human
Conditions: A2780/DOX, 10 µM combined with doxorubicin at IC25, 48 h
Experimental: as §1, §2, §3

Row | Structure (SMILES) | ABCB2 Expression Difference
11 | COc1cc(C2Oc3cc(-c4oc5cc(O)cc(O)c5c(=O)c4O)ccc3OC2CO)ccc1O (stereo not shown) [Dehydrosilybin AB, 2,3-dehydrosilybin] | 5.145
12 | COc1cc([C@@H]2Oc3cc(-c4oc5cc(O)cc(O)c5c(=O)c4O)ccc3O[C@H]2CO)ccc1O [Dehydrosilybin B, 2,3-dehydrosilybin B] | 9.286

Test system: ABCC1 (MRP1)
Assay: ABCC1 mRNA expression (real-time PCR)
Type: cell-based, human
Conditions: A2780/DOX, 10 µM combined with doxorubicin at IC25, 48 h
Experimental: as §1, §2, §3

Row | Structure (SMILES) | ABCC1 Expression Difference
13 | COc1cc(C2Oc3cc(-c4oc5cc(O)cc(O)c5c(=O)c4O)ccc3OC2CO)ccc1O (stereo not shown) [Dehydrosilybin AB, 2,3-dehydrosilybin] | 1.301
14 | COc1cc([C@@H]2Oc3cc(-c4oc5cc(O)cc(O)c5c(=O)c4O)ccc3O[C@H]2CO)ccc1O [Dehydrosilybin B, 2,3-dehydrosilybin B] | 1.213

Test system: ABCD2
Assay: ABCD2 mRNA expression (real-time PCR)
Type: cell-based, human
Conditions: A2780/DOX, 10 µM combined with doxorubicin at IC25, 48 h
Experimental: as §1, with “After 24 h, the dishes were washed with PBS and new DMEM medium supplemented with doxorubicin (at concentration equal to IC25) and samples (10 µM) were added.” left out
as §2, §3

Row | Structure (SMILES) | ABCD2 Expression Difference | ABCD2 Treated vs. Untreated
15 | COc1cc(C2Oc3cc(-c4oc5cc(O)cc(O)c5c(=O)c4O)ccc3OC2CO)ccc1O (stereo not shown) [Dehydrosilybin AB, 2,3-dehydrosilybin] | 0.712 | DOWN
16 | COc1cc([C@@H]2Oc3cc(-c4oc5cc(O)cc(O)c5c(=O)c4O)ccc3O[C@H]2CO)ccc1O [Dehydrosilybin B, 2,3-dehydrosilybin B] | 0.733 | DOWN

Same assay, conditions: A2780/DOX, 10 µM, 48 h, without doxorubicin

Row | Structure (SMILES) | ABCD2 Expression Difference | ABCD2 Treated vs. Untreated
17 | COc1cc(C2Oc3cc(-c4oc5cc(O)cc(O)c5c(=O)c4O)ccc3OC2CO)ccc1O (stereo not shown) [Dehydrosilybin AB, 2,3-dehydrosilybin] | 1.199 | 
18 | COc1cc([C@@H]2Oc3cc(-c4oc5cc(O)cc(O)c5c(=O)c4O)ccc3O[C@H]2CO)ccc1O [Dehydrosilybin B, 2,3-dehydrosilybin B] | 0.860 | DOWN

Test system: ABCG2 (BCRP)
Assay: ABCG2 mRNA expression (real-time PCR)
Type: cell-based, human
Conditions: A2780/DOX, 10 µM combined with doxorubicin at IC25, 48 h
Experimental: as §1, with “After 24 h, the dishes were washed with PBS and new DMEM medium supplemented with doxorubicin (at concentration equal to IC25) and samples (10 µM) were added.” left out
as §2, §3

Row | Structure (SMILES) | ABCG2 Expression Difference
19 | COc1cc(C2Oc3cc(-c4oc5cc(O)cc(O)c5c(=O)c4O)ccc3OC2CO)ccc1O (stereo not shown) [Dehydrosilybin AB, 2,3-dehydrosilybin] | 1.698
20 | COc1cc([C@@H]2Oc3cc(-c4oc5cc(O)cc(O)c5c(=O)c4O)ccc3O[C@H]2CO)ccc1O [Dehydrosilybin B, 2,3-dehydrosilybin B] | 1.948

Same assay, conditions: A2780/DOX, 10 µM, 48 h, without doxorubicin

Row | Structure (SMILES) | ABCG2 Expression Difference
21 | COc1cc(C2Oc3cc(-c4oc5cc(O)cc(O)c5c(=O)c4O)ccc3OC2CO)ccc1O (stereo not shown) [Dehydrosilybin AB, 2,3-dehydrosilybin] | 1.921

Test system: ABCG4
Assay: ABCG4 mRNA expression (real-time PCR)
Type: cell-based, human
Conditions: 10 µM, 48 h, without doxorubicin
Experimental: as §1, with “After 24 h, the dishes were washed with PBS and new DMEM medium supplemented with doxorubicin (at concentration equal to IC25) and samples (10 µM) were added.” left out
as §2, §3

Row | Structure (SMILES) | downregulation of ABCG4 expression [%]
22 | COc1cc([C@@H]2Oc3cc(-c4oc5cc(O)cc(O)c5c(=O)c4O)ccc3O[C@H]2CO)ccc1O [Dehydrosilybin B, 2,3-dehydrosilybin B] | 26

Same assay, conditions: A2780/DOX, 10 µM combined with doxorubicin at IC25, 48 h

Row | Structure (SMILES) | ABCG4 Expression Difference
23 | COc1cc(C2Oc3cc(-c4oc5cc(O)cc(O)c5c(=O)c4O)ccc3OC2CO)ccc1O (stereo not shown) [Dehydrosilybin AB, 2,3-dehydrosilybin] | 2.008
24 | COc1cc([C@@H]2Oc3cc(-c4oc5cc(O)cc(O)c5c(=O)c4O)ccc3O[C@H]2CO)ccc1O [Dehydrosilybin B, 2,3-dehydrosilybin B] | 2.860

Same assay, conditions: A2780/DOX, 10 µM, 48 h, without doxorubicin

Row | Structure (SMILES) | ABCG4 Expression Difference | ABCG4 Treated vs. Untreated
25 | COc1cc(C2Oc3cc(-c4oc5cc(O)cc(O)c5c(=O)c4O)ccc3OC2CO)ccc1O (stereo not shown) [Dehydrosilybin AB, 2,3-dehydrosilybin] | 1.162 | 
26 | COc1cc([C@@H]2Oc3cc(-c4oc5cc(O)cc(O)c5c(=O)c4O)ccc3O[C@H]2CO)ccc1O [Dehydrosilybin B, 2,3-dehydrosilybin B] | 0.736 | DOWN
